Here are results for 6 substances from patent US7476729B2, “Dbait and uses thereof” (Institut Curie, priority 2003, dated 2009).

Series [1] concerns DNA end-joining reaction in the nuclear extracts of Hep2 cells. The series is described as follows: DNA end-joining assay in Hep2 nuclear extract. Format: biochemical, human. The note with it: 2 h incubation with various Dbait. As for the experimental part: DNA end-joining was monitored by incubating ^32P-labeled 605-bp linear DNA fragments with Hep2 nuclear extract in the presence of various Dbait molecules. Ligation products migrate as dimers, trimers or tetramers, starting 605 bp monomer.
Approximately 16% of the ^32P-labeled blunt linear duplex DNA molecules were ligated into dimers and trimers during the first 2 h of incubation. The amount of high molecular weight ligation products increased up to 30% of the total input DNA after 16 h. […] In most experiments, Dbait32H (SEQ ID NO: 1) was added simultaneously with the labeled DNA fragments to the nuclear extract.
Various Dbait molecules were tested for their effect on the cell-free assay by adding the molecules to nuclear extract and incubating for 2 h with the DNA fragments.
(§1) DNA-PK activity was monitored using the kit SignaTECT DNA-dependent Protein Kinase Assay System (Promega, Madison, USA). Increasing amounts of Hep2 nuclear extract (cleaned of endogenous DNA by DEAE-Sepharose filtration) were assayed in the presence of 250 nM Dbait. Extract, biotinylated peptide substrate and various amount of nuclear extract were incubated 5 minutes at 30° C. with (γ-^32P)ATP according to manufacturer indications. The biotinylated substrate was capture on streptavidine membrane, washed and counted in a scintillation counter. Percentage of phosphorylation is calculated by dividing the bound radioactivity by the total count of (γ-^32P)ATP per sample. Reactions (10 μl) were carried out in 60 mM KOAc, 100 μg/ml BSA, 0.5 mM Mg(Cl)2, 1 μl T4 DNA ligase 10× buffer (Promega, Madison, USA). Nuclear extract and Dbait were incubated 2 minutes before addition of ^32P-labeled DNA (10 ng). Samples were incubated various time at 37° C. before ligation being stopped by 20 mM EDTA and 1 mg/ml Proteinase K addition. Ligation products were analyzed by electrophoresis through 0.7% agarose gels followed by autoradiography and quantification by phosphorimaging.

For series [2], the system named is radiation-enhanced illegitimate integration of a plasmid in Hela cells. The series is described as follows: Inhibition of radiation-enhanced illegitimate integration of exogenous DNA. Format: cell-based, human. The note with it: 2 μg Dbait, fractionated 4×0.5 Gy irradiation. As for the experimental part:
(§2) Exponentially growing cells in six-well plates were harvested and incubated with […] of complete DMEM containing a mixture of Dbait molecules and Superfect reagent (Qiagen, Courtaboeuf, France) in a ratio of 10 μl Superfect per μg DNA. After 5 h at 37° C. under standard conditions, the cells were washed with PBS and complete DMEM was added. Where indicated, cells were exposed to irradiation either in one session (10 Gy) 5 h after the beginning of transfection or in four sessions of 0.5 Gy administered with a ^137Cs unit (1 Gy/min) 3, 4, 5 and 6 h after the beginning of transfection and allowed to grow for two weeks. When plasmid integration was measured, 2 μg of plasmid was added to Dbait transfection and puromycin (1.7 μg/ml) was added to the growth medium 48 h after transfection. Plasmid transfection efficiency was estimated by analyzing 10,000 cells for GFP expression on a FACScan flow cytometer (FACSalibur, Beckton-Dickinson, USA).
Ionizing radiation is known to improve illegitimate integration of exogenous DNA, a process termed radiation-enhanced integration. Hela cell culture was used for this assay. Cells were transfected during 8 hours by 2 μg of a linear plasmid carrying the gene coding for neomycin resistance, and three different ratio of DNA/superfect (1:2, 1:5, 1:10). During transfection time, the cells were exposed to different irradiation protocols: no irradiation, one single irradiation of 1 Gy and 2 Gy, as well as a 2 Gy irradiation delivered by fractionated doses of 0.5 Gy every 2 hours (4×0.5 Gy). The integration of the plasmid was monitored by selection of Neo^R cells growing in a medium containing 0.6 mg/ml of G418. […] When 2 μg of Dbait32H (SEQ ID NO: 1) molecules were added to the transfection mix, the radiation-enhanced integration was abolished (FIG. 2.3).
Wortmann (Wort) and NU7026 (NU) which are known inhibitors of PI3K (including DNA-PK) were used as control.

The next series concerns Hela cells. Description: Clonogenic survival assay of Hela cells after 4×0.5 Gy irradiation. The note with it: 4×0.5 Gy spaced 2 hours, Dbait transfected with Superfect (83 nM or 2 μg). Format: cell-based, human. As for the experimental part:
as §2
Upon 8 hours transfection of Dbait molecules in Hela cells and four irradiation with 0.5 Gy fractionated irradiation spaced 2 hours (4×0.5 Gy), performed with γ-rays from a ^137Cs source, a significant reduction of clonogenic survival was observed as compared to untransfected cells. The results are given on FIG. 2.1 wherein Panel A gives the dose-dependence of normalized survival clone number in the presence of Dbait32 (SEQ ID NO: 1) and Dbait32H (SEQ ID NO: 1), and Panel B, the normalized survival clone number in the presence of different Dbait molecules at 83 nM (concentration in culture medium). Cell culture was in MEM supplemented with 10% serum. Superfect (Qiagene) was used as transfection agent according to the manufacturer's instruction.
Clonogenic survival was estimated as the number of treated cells forming colonies on the number of untreated cells.

A further series has as its target T1, Ku complex (Homo sapiens, UniProt P12956+P13010).
T1 construct: in the presence of nuclear protein extracts from Hep2 cells according to standard protocol; endogenous in cells; host or cells: Hep2 cells (nuclear protein extract)
Description: Band-shift assay with Hep2 nuclear protein extracts. Format: binding. The note with it: for retarded bands in band-shift assay: 10 nM 32P radio-labelled Dbait, 0-320 ng/μL Hep2 nuclear proteins, 30° C., 10 minutes. Here is the method:
As the first step to dissect the mechanism of action of Dbait molecules, a series of band-shift assays were carried out with different ^32P radio-labelled Dbait molecules in the presence of nuclear protein extracts from Hep2 cells according to standard protocol. Typically, 10 nM ^32P radio-labelled Dbait molecules were incubated in the presence of various concentrations of nuclear proteins (0, 10, 20, 40, 80, 160, and 320 ng/μL) at 30° C. for 10 minutes in TBE buffer. Then the samples were loaded on a 5% acrylamide native gel. The electrophoresis was run at 95V for 2 hours at 4° C. The gel was dried and scanned by phosphorimager (Molecular Dynamics).
For 32-bp Dbait molecules, the intensity of the retarded band 1 increases and then decreases as the concentration of protein increases, while the intensity of the retarded band 2 increases as a function of the concentration of nuclear protein extracts.
It is likely that band 1 has one Ku70/80 complex bound to the 16 to 32-bp Dbait, whereas the band 2 has two Ku70/80 complexes bound to the 32-bp Dbait molecules. Control experiments performed with purified Ku proteins confirmed this interpretation.

Another series has as its target T2, DNA-PK (Homo sapiens, UniProt P12956+P13010+P78527).
T2 construct: Increasing amounts of Hep2 nuclear extract (cleaned of endogenous DNA by DEAE-Sepharose filtration) were assayed; endogenous in cells; host or cells: Hep2 cells (nuclear extract, DNA removed by DEAE-Sepharose filtration)
Description: DNA-dependent protein kinase (DNA-PK) activity assay in Hep2 nuclear extract. Format: biochemical. The note with it: 2 μg Dbait, 1.5 μg Hep2 nuclear protein extract. As for the experimental part: as §1
The kinase activity depended directly on the length and structure of the double-stranded ‘stem’ of the Dbait molecule. […] In addition, various backbone modifications (phosphothioate, methyphosphonate, 3′-3′ linkage) at the free blunt end (up to 3-bp), as well as the internally tagged ligands (e.g. fluorescent dyes), are capable of activating DNA-PK activity.

T1 sequence (P12956 whole entry): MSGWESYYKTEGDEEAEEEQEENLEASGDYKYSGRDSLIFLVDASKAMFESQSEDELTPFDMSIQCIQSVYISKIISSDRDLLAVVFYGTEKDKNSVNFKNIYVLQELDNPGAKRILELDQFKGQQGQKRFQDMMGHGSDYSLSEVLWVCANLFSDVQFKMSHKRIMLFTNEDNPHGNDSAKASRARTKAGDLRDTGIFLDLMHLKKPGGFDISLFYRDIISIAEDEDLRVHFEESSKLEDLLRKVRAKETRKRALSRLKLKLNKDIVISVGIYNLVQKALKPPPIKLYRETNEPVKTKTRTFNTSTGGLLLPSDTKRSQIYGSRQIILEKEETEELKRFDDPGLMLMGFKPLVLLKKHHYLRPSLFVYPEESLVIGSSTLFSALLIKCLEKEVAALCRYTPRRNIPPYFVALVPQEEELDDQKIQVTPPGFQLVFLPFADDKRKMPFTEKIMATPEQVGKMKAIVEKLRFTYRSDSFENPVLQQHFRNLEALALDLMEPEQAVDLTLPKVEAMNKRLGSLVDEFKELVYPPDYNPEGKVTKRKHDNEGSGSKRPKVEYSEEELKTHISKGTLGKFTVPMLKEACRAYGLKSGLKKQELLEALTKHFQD
T1 sequence (P13010 whole entry): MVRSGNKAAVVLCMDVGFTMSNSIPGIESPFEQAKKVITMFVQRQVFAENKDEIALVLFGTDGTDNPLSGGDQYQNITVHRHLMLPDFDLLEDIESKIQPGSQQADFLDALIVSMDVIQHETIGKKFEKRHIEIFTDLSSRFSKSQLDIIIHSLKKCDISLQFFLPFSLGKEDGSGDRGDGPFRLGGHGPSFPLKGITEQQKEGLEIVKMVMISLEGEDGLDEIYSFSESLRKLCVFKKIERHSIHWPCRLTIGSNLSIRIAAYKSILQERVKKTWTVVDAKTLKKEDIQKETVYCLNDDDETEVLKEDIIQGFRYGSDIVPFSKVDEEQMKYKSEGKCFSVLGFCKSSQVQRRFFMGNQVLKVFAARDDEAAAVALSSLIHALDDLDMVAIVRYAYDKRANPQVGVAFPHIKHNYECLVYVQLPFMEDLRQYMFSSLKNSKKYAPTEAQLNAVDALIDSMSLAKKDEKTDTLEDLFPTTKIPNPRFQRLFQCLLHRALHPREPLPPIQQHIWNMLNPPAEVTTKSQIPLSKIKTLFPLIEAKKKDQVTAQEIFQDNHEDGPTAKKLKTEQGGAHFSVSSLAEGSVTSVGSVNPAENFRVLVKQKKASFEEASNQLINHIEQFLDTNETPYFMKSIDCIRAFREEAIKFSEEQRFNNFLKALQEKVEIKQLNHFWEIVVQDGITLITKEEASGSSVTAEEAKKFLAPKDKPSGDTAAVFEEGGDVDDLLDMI

Consider “Dbait32C: dumbbell 32-bp double strand DNA (without free blunt end) (DNA ACGCACGGGTGTTGGGTCGTTTGTTCGGATCT; DNA, backbone not given here; dumbbell duplex DNA, both ends closed by hexaethyleneglycol loops)”, for which, in series [1], the “ligation of DNA fragments in cell-free assay” value was “largely unaffected”. Further, in series [2], the “radiation-enhanced illegitimate integration of plasmid (puromycin resistance)” value is recorded as “not effective”.

As for “5′ACGCACGGGTGTTGGGTCGTTTGTTCGGATCTACGCACGGTCGTTTGTTCGGTGTTGGCGATCT3′ [Dbait64]”, the clonogenic survival result in the series on Hela cells is reported as “significantly reduced clonogenic survival”.

Turning to “Dbait32H-po: full length phosphodiester Dbait32H (DNA ACGCACGGGTGTTGGGTCGTTTGTTCGGATCT; DNA, phosphodiester; hairpin DNA closed by hexaethyleneglycol loop)”, the “retarded bands in band-shift assay” value in the series with Ku complex is recorded as “two retarded band”.

For “Dbait32-T4: contains four thymines (T4) as a linker instead of a hexaethyleneglycol linker (DNA ACGCACGGGTGTTGGGTCGTTTGTTCGGATCT; DNA, backbone not given here; hairpin DNA with four-thymine loop, 3-bp phosphorothioate at free blunt end)”, in the series with Hela cells, the clonogenic survival result was “significantly reduced clonogenic survival”.

With “Dbait24H: hairpin double strand DNA with a stem of 24-bp (DNA ACGCACGGGTGTTGGGTCGTTTGT; DNA, backbone not given here; hairpin DNA with hexaethyleneglycol loop, 3-bp phosphorothioate at free blunt end)”, the “retarded bands in band-shift assay” value in the series with Ku complex was “One retarded band”. Moreover, the “binding of Ku” value in the series with Ku complex (Hep2 nuclear extract, band-shift) is “bound only one Ku dimer”. In addition, the “ligation of DNA fragments in cell-free assay” value in series [1] is reported as “inhibited the ligation as efficiently as Dbait32H”. Besides, the “DNA-PK activation (kinase activity)” value with DNA-PK was “inefficient”. Further, the clonogenic survival result in the series with Hela cells is reported as “significantly reduced clonogenic survival”.

In the case of “5′ACGCACGGGTGTTGGGTCGTTTGTTCGGATCT ACGCACGGTCGTTTGTTCGGTGTTGGCGATCT3′ [Dbait64L]”, the clonogenic survival entry in the series with Hela cells is reported as “significantly reduced clonogenic survival”.
